Source: patent US8778966B2, “Quinolinone derivatives as PARP and tank inhibitors” (Janssen Pharmaceutica, NV, priority 2007, dated 2014)

Experiments:
Assay type in all cases: cell-based, human
[1] = test system: PC3 cells; assay: EB1 Comet (microtubule disruption) assay; conditions: Homo sapiens, PC-3, 1 h, 1 hour treatment, read-out: EB1 pLAC (converted)
Protocol: The Eb1 Comet assay relies on the detection of the Eb1 protein at the plus end of polymerizing microtubules (Mimori-Kiyosue, 2000) using indirect immunofluorescence. Disruption of microtubule dynamics through de-polymerization or stabilization results in a de-localization of Eb1 from the growing microtubule ends and this is visualized by the disappearance of Eb1 containing cytoplasmic foci.
Briefly, human prostate cancer PC3 cells obtained from the American Type Culture Collection were grown in 96-well plates (Greiner, cat. no. 655090) in HAM's F12 medium as recommended by the provider (ATCC). The cells were treated for 1 hour at 37° C. with compounds dissolved in DMSO (0.6% final DMSO concentration). The culture medium was then removed by aspiration and the cells were fixed by adding cold methanol (−20 C). After a 15 min. incubation at −20 C, the cells were washed twice with DPBS (Gibco) containing 0.5% Triton X-100. Mouse Eb1 antibody (BD Transduction Laboratories, cat. no. 610534) was added to the cells (1/250 dilution in DPBS containing 1% BSA) and incubated overnight at room temperature. The antibody was subsequently removed and the cells washed twice with DPBS, 0.5% Triton X-100. Secondary goat anti-mouse antibody conjugated to Alexa 488 fluorescent dye (Molecular Probes) was added at a 1/500 dilution in DPBS, 1% BSA and incubated for 1 hour at 37 C. The cells were washed twice with DPBS, 0.5% Triton X-100 and then DPBS containing 0.5% Triton X-100 and 1/5000 Hoechst 33342 (Molecular Probes) was added. Microscopy based Eb1 foci visualization was carried out using an IN Cell Analyser 1000 (Amersham Biosciences) using a 20× objective. Compound dependent microtubule disruption was visually determined by the disappearance in Eb1 foci. The lowest active concentration (LAC) was determined as the concentration where Eb1 foci were absent in at least 50% of the treated cells.

[2] = test system: HCT116 cells; assay: Antiproliferative activity, Alamar Blue assay, HCT116 cells; conditions: Homo sapiens, HCT-116, HCT116 cells; read-out: HCT116 antiproliferative activity pIC50 (converted)
Protocol: Human colon carcinoma HCT116 cells obtained from the ATCC were cultured in McCoy's 5 A medium supplemented with 2 mM L-Glutamine, 50 μg/ml gentamicin and 10% heat inactivated fetal calf serum.
(§1) Resazurin was purchased from Aldrich (Prod. No. 199303). Potassium ferrocyanide, potassium ferricyanide, KH2PO4 and K2HPO4 were purchased from Sigma (Prod. Nos. P9387, P8131, P5655 and P8281, respectively).
(§2) Potassium Phosphate Buffer 0.1 M (PPB) was made as follows: 2.72 gram KH2PO4 and 13.86 gram K2HPO4 were dissolved in 500 ml milli-Q H2O, the pH was adjusted to pH 7.4 and the volume was brought to 1 litre with milli-Q H2O; the buffer was filter sterilised and stored at room temperature. Resazurin stock solution (PPB-A) was prepared fresh by dissolving 45 mg resazurin in 15 ml PBS. 30 mM potassium ferricyanide (PPB-B) was prepared by dissolving 0.987 gram potassium ferricyanide in 100 ml PPB. 30 mM potassium ferrocyanide (PPB-C) was prepared by dissolving 1.266 gram potassium ferrocyanide in 100 ml PPB.
(§3) Mixture of PPB-A, PPB-B and PPB-C was prepared by mixing equal volumes of the respective solutions. Resazurin work solution (herein termed “Alamar Blue” solution) was prepared by diluting said mixture 20×(vol/vol) in PPB and filter sterilising; the Alamar Blue solution could be kept at 4° C. for a maximum of 2 weeks.
(§4) For experiments in 384 wells plates the cells were seeded at a density of 4.5×10^3 cells/ml in Falcon 384-well culture plates (Life Technologies, Merelbeke, Belgium), black with clear bottom, in 45 μl culture medium. Cells were allowed to adhere to plastic for 24 hr. The tested compound was pre-diluted (1/50 in culture medium) and 5 μl pre-diluted compound was added to the wells. Following 4-day incubation, 10 μl of the Alamar Blue solution was added to each well and the cells were further incubated for 4 hrs (HCT116) or 24 hrs (PC-3) at 37° C. The fluorescence intensity was measured for each well on a Fluorescence plate reader (Fluorskan, Labsystems, 540 nm excitation and 590 nm emission)
(§5) The antiproliferative activity was calculated as percentage of remaining viable cells in treated versus control (untreated cells) conditions. Within an experiment, the result for each experimental condition is the mean of 3 replicate wells. When appropriate, the experiments were repeated to establish full concentration-response curves. When appropriate, IC50-values (concentration of the drug, needed to reduce cell growth to 50% of the control) were computed using probit analysis for graded data (Finney, D. J., Probit Analyses, 2nd Ed. Chapter 10, Graded Responses, Cambridge University Press, Cambridge 1962). Herein the effects of test compounds are expressed as pIC50 (the negative log value of the IC50-value) (see Table 2).

[3] = test system: PC-3 cells; assay: Antiproliferative activity, Alamar Blue assay, PC-3 cells; conditions: Homo sapiens, PC-3, PC3 cells; read-out: PC3 antiproliferative activity pIC50 (converted)
Protocol: Human prostate cancer PC-3 cells obtained from the ATCC were cultured in HAM′S F12 medium supplemented with 1 mM Sodium Pyruvate, 1.5 g/L Sodium Bicarbonate, 50 μg/ml gentamicin, non-essential amino acids and 10% fetal calf serum.
as §1, §2, §3, §4, §5

IC50 [2] [nM] | IC50 [3] [nM] | Compound | minimal effective concentration [1] [µM]
31.6 | 158 | C#Cc1cccc(CC(C)(C#N)c2ccc3cc(CC)c(=O)[nH]c3c2)c1 (racemic) [Compound 168] | 0.1
1000 | 1000 | Cc1cc2ccc([C@@](C)(C#N)CCOc3ccccc3)cc2[nH]c1=O (single isomer, unassigned) [Compound 164] | 0.316
398 | 1000 | CCc1cc2ccc(C(C)(C#N)Cc3ccccc3Br)cc2[nH]c1=O (stereo not drawn) [Compound 104] | 0.316
251 | 1000 | CCc1cc2ccc(C(C)(C#N)Cc3ccccc3C)cc2[nH]c1=O (stereo not drawn) [Compound 105] | 0.316
200 | 251 | CCc1cc2ccc(C(C)(C#N)Cc3cccc(C)c3)cc2[nH]c1=O (stereo not drawn) [Compound 107] | 1
6310 | > 10000 | CCc1cc2ccc(C(C)(C#N)Cc3ccc(C(F)(F)F)cc3)cc2[nH]c1=O (stereo not drawn) [Compound 108] | –
5010 | > 10000 | CCc1cc2ccc(C(C)(C#N)Cc3ccc(C#N)cc3)cc2[nH]c1=O (stereo not drawn) [Compound 111] | –
1580 | 1580 | CCc1cc2ccc(C(C)(C#N)Cc3ccc(OC(F)(F)F)cc3)cc2[nH]c1=O (stereo not drawn) [Compound 114] | 1
2000 | 1260 | CCc1cc2ccc(C(C)(C#N)Cc3ccc(Br)cc3)cc2[nH]c1=O (stereo not drawn) [Compound 118] | 3.16
2000 | 2510 | CCc1cc2ccc(C(C)(C#N)Cc3ccc(OC)cc3)cc2[nH]c1=O (stereo not drawn) [Compound 119] | 3.16
251 | 398 | CCc1cc2ccc(C(C)(C#N)Cc3ccc4ccccc4c3)cc2[nH]c1=O (stereo not drawn) [Compound 122] | 1
200 | 631 | CCc1cc2ccc(C(C)(C#N)Cc3cccc(Cl)c3)cc2[nH]c1=O (stereo not drawn) [Compound 140] | 0.1
398 | 501 | CCc1cc2ccc(C(C)(C#N)CCOc3ccc(Cl)cc3)cc2[nH]c1=O (stereo not drawn) [Compound 146] | –
6310 | 1580 | CCc1cc2ccc(C(C)(C#N)CCOc3ccc(SC)cc3)cc2[nH]c1=O (stereo not drawn) [Compound 155] | –
> 10000 | > 10000 | CCc1cc2ccc(C(C)(C#N)CCOc3ccccc3C(C)=O)cc2[nH]c1=O (stereo not drawn) [Compound 159] | –
> 10000 | > 10000 | CCc1cc2ccc(C(C)(C#N)CCOc3ccc4oc(C)c(C)c4c3)cc2[nH]c1=O (stereo not drawn) [Compound 162] | –
10000 | 7940 | CCc1cc2ccc(C(C#N)(CCOc3ccccc3)C3CC3)cc2[nH]c1=O (stereo not drawn) [Compound 166] | –
> 10000 | 7940 | CCc1cc2ccc(C(C)(C#N)CCOc3ccc(C(C)(C)C)cc3)cc2[nH]c1=O (stereo not drawn) [Compound 167] | –
1580 | 2510 | CCc1cc2ccc(C(C#N)(CC)CCOc3ccc(C#N)cc3)cc2[nH]c1=O (stereo not drawn) [Compound 271] | –

Second part, the molecule before the results:

Compound | IC50 [2] [nM] | IC50 [3] [nM] | minimal effective concentration [1] [µM]
CCc1cc2ccc(C(C)(C#N)Cc3cccc(OC(F)(F)F)c3)cc2[nH]c1=O (stereo not drawn) [Compound 110] | 158 | 200 | 0.1
CCc1cc2ccc(C(C)(C#N)Cc3c(F)c(F)c(F)c(F)c3F)cc2[nH]c1=O (stereo not drawn) [Compound 116] | 631 | 794 | 0.316
CCc1cc2ccc(C(C)(C#N)Cc3cccc(F)c3F)cc2[nH]c1=O (stereo not drawn) [Compound 120] | 251 | 794 | 0.316
CCc1cc2ccc(C(C)(C#N)Cc3cccc(Cl)c3Cl)cc2[nH]c1=O (stereo not drawn) [Compound 121] | 158 | 631 | 0.316
CCc1cc2ccc(C(C)(C#N)Cc3ccc4c(c3)nnn4C)cc2[nH]c1=O (stereo not drawn) [Compound 123] | 3980 | > 10000 | 3.16
CCc1cc2ccc(C(C)(C#N)Cc3ccc4c(c3)OCCO4)cc2[nH]c1=O (stereo not drawn) [Compound 124] | 501 | 2000 | 1
CCc1cc2ccc(C(C)(C#N)Cc3cc(C)cc(C)c3)cc2[nH]c1=O (stereo not drawn) [Compound 125] | 200 | 251 | 0.1
CCc1cc2ccc(C(C)(C#N)Cc3cc(F)cc(C(F)(F)F)c3)cc2[nH]c1=O (stereo not drawn) [Compound 127] | 501 | 1000 | 1
CCc1cc2ccc(C(C)(C#N)Cc3cccc(S(C)(=O)=O)c3)cc2[nH]c1=O (stereo not drawn) [Compound 129] | 1580 | 5010 | 1
CCc1cc2ccc(C(C)(C#N)Cc3cc(C(F)(F)F)cc(C(F)(F)F)c3)cc2[nH]c1=O (stereo not drawn) [Compound 131] | 6310 | > 10000 | –
CCc1cc2ccc(C(C)(C#N)Cc3cccc(C)c3F)cc2[nH]c1=O (stereo not drawn) [Compound 132] | 398 | 631 | 0.316
CCc1cc2ccc(C(C)(C#N)Cc3cc(Br)cc(Br)c3)cc2[nH]c1=O (stereo not drawn) [Compound 133] | 251 | 501 | –
CCc1cc2ccc(C(C)(C#N)Cc3cccc(C(F)(F)F)c3F)cc2[nH]c1=O (stereo not drawn) [Compound 134] | 501 | 1000 | 1
CCc1cc2ccc(C(C)(C#N)Cc3c(Cl)cccc3Cl)cc2[nH]c1=O (stereo not drawn) [Compound 135] | 316 | 1000 | 1
CCc1cc2ccc(C(C)(C#N)Cc3c(Cl)cccc3Br)cc2[nH]c1=O (stereo not drawn) [Compound 136] | 316 | 1000 | 1
CCc1cc2ccc(C(C)(C#N)Cc3ccc(F)cc3Br)cc2[nH]c1=O (stereo not drawn) [Compound 139] | 126 | 794 | 0.316
CCc1cc2ccc(C(C)(C#N)CC#Cc3cccc(F)c3)cc2[nH]c1=O (stereo not drawn) [Compound 184] | 3160 | 3980 | –
Cc1cc2ccc([C@@](C)(C#N)[C@@H]3CCc4cc(C#N)ccc43)cc2[nH]c1=O [Compound 245] | 6310 | 7940 | –
Cc1cc2ccc([C@@](C)(C#N)[C@H]3CCc4cc(C#N)ccc43)cc2[nH]c1=O [Compound 389] | 200 | 200 | –
CCc1cc2ccc(C(C#N)(CC)C3CCc4ccc(F)cc43)cc2[nH]c1=O (stereo not drawn) [Compound 391] | 631 | 794 | –
